49 compounds from patent publication US9556121B2, “Pyridyloxyalkyl carboxamides and use thereof as endoparasiticides and nematicides” (BAYER CROPSCIENCE AG, priority 2012, dated 2017) can be followed below.

Common to all, as to format: in vivo
Assay [1] relates to Haemonchus contortus. Put plainly: Haemonchus contortus test (HAEMCO), larval kill. As to conditions: for effect (kill in %): application rate 20 ppm, after 5 days, about 40 larvae; for inhibition at 20 ppm: Haemonchus contortus, 120 h, HAEMCO, 5 dat. As for the experimental part: Haemonchus contortus Test (HAEMCO)
(§1) Solvent: dimethyl sulphoxide
(§2) To produce a suitable preparation of active compound, 10 mg of active compound are mixed with 0.5 ml of dimethyl sulphoxide, and the concentrate is diluted with Ringer solution to the desired concentration.
Vessels containing the active compound preparation of the desired concentration are populated with about 40 larvae of the red stomach worm (Haemonchus contortus).
(§3) After 5 days, the kill in % is determined. 100% means that all of the larvae have been killed; 0% means that none of the larvae have been killed.

Assay [2] has as its system Cooperia curticei. Put plainly: Cooperia curticei test (COOPCU), larval kill. As to conditions: for effect (kill in %): after 5 days, about 40 nematode larvae; for inhibition at 20 ppm: Cooperia curticei, 120 h, COOPCU, 5 dat. As for the experimental part: Cooperia curticei Test (COOPCU)
as §1, §2
Vessels containing the active compound preparation of the desired concentration are populated with about 40 nematode larvae (Cooperia curticei).
as §3

Assay [3] has as its system Meloidogyne incognita. In words: Meloidogyne incognita test (MELGIN), gall formation on lettuce. As to conditions: application rate 20 ppm, after 14 days, sand, egg/larvae suspension. As for the experimental part: Meloidogyne incognita Test (MELGIN)
Solvent: 125.0 parts by weight of acetone
To prepare a suitable active compound preparation, 1 part by weight of active compound is mixed with the stated amount of solvent and the concentrate is diluted with water to the desired concentration.
Vessels are filled with sand, active compound solution, an egg/larvae suspension of the root-knot nematode (Meloidogyne incognita) and lettuce seeds. The lettuce seeds germinate and the plants develop. On the roots, galls are formed.
After 14 days, the nematicidal effect in % is determined by the formation of galls. 100% means that no galls have been found; 0% means that the number of galls on the treated plants corresponds to the untreated control.

Each structure is given as a SMILES string.

In general, inhibition refers to the share of the control response that was lost under treatment.

Regarding `O=C(NCCOc1ncc(C(F)(F)F)cc1Cl)c1ccccc1I` [1-28], the “effect (kill in %)” value in assay [1] and in assay [2] (application rate 20 ppm) was 100% in each case.

With `O=C(NC1(COc2ncc(C(F)(F)F)cc2Cl)CC1)c1ccccc1I` [1-170], the “effect (kill in %)” value in assay [1] and in assay [2] (application rate 20 ppm) was 100% in each case. For the same compound, the “nematicidal effect in % (formation of galls)” value (“nematicidal effect in %” below) in assay [3] came to 100%.

Regarding `O=C(NC1(COc2ccc(C(F)(F)F)cn2)CC1)c1cccnc1Cl` [1-177], in assay [3], the “nematicidal effect in %” value worked out at 90%.

For `N#Cc1cnc(OCCNC(=O)c2ccccc2C(F)(F)F)c(F)c1` [1-164], the “effect (kill in %)” value in assay [1] and in assay [2] (application rate 20 ppm) was 90% in each case. Also, the “nematicidal effect in %” value in assay [3] is recorded as 100%.

`O=C(NCCOc1ccc(Cl)cn1)c1c(F)cccc1F` [1-35]: the “effect (kill in %)” value in assay [1] and in assay [2] (application rate 100 ppm) was 80% throughout.

In the case of `CC(COc1ncc(C(F)(F)F)cc1Cl)NC(=O)c1cn(C)nc1C(F)F` (stereo not shown) [1.239, reference compound], the inhibition at 20 ppm in assay [1] and in assay [2] was 0% in each case.

For the compound `O=C(NCCOc1ncc(C(F)(F)F)cc1Cl)c1ccccc1Cl` [1-26], the “effect (kill in %)” value in assay [1] worked out at 100%; in assay [2] (application rate 20 ppm) it was 80%.

As for `O=C(NCCOc1ncc(C(F)(F)F)cc1Cl)c1ccccc1C(F)(F)F` [1-1], the “effect (kill in %)” value in assay [1] and in assay [2] (application rate 20 ppm) was 100% each time.

Take `O=C(NCCOc1ccc(C(F)(F)F)cn1)c1c(F)cccc1F` [1-45]: the “effect (kill in %)” value in assay [1] is on record as 90%; in assay [2] (application rate 100 ppm), 80%.

In the case of `O=C(NC1(COc2ccc(C(F)(F)F)cn2)CC1)c1ccccc1C(F)(F)F` [1-173], the “effect (kill in %)” value in assay [1] and in assay [2] (application rate 20 ppm) was 100% throughout.

For the compound `O=C(NC1(COc2ncc(C(F)(F)F)cc2Cl)CC1)c1ccccc1[N+](=O)[O-]` [1-195], the “effect (kill in %)” value in assay [1] was found to be 80%.

For the compound `CC(COc1ncc(C(F)(F)F)cc1Cl)NC(=O)c1ccccc1C(F)(F)F` (stereo not shown) [1-4], the inhibition at 20 ppm in assay [1] worked out at 90%; in assay [2], 100%. For the same compound, the results for the “effect (kill in %)” value in assay [1] and in assay [2] (application rate 20 ppm) were 90% and 100%, respectively.

Take `O=C(NCCOc1ccc(Cl)cn1)c1ccccc1Br` [1-33]: the “effect (kill in %)” value in assay [1] was determined as 80%.

Consider `O=C(NCCOc1ccc(C(F)(F)F)cn1)c1ccccc1C(F)(F)F` [1-46], for which, in assay [1], the “effect (kill in %)” value is listed as 100%.

On to `O=C(NC1(COc2ncc(C(F)(F)F)cc2Cl)CC1)c1ccccc1C(F)(F)F` [1-169], for which the “effect (kill in %)” value in assay [1] and in assay [2] (application rate 20 ppm) was 80% each time.

Consider `O=C(NCCOc1ncc(Cl)cc1Cl)c1c(F)cccc1F` [1-19], for which the “effect (kill in %)” value in assay [1] is on record as 90%.

Take `O=C(NCCOc1ncc(Cl)cc1Cl)c1ccccc1C(F)(F)F` [1-20]: in assay [1], the “effect (kill in %)” value is 100%.

As for `O=C(NCCOc1ncc(Cl)cc1Cl)c1sccc1I` [1-22], the “effect (kill in %)” value in assay [1] stood at 100%.

Regarding `O=C(NCCOc1ccc(C(F)(F)F)cn1)c1ccccc1Cl` [1-42], the “effect (kill in %)” value in assay [1] stood at 80%.

Turning to `O=C(NCCOc1ncc(C(F)(F)F)cc1Cl)c1ccccc1Br` [1-27], the results for the “effect (kill in %)” value in assay [1] and in assay [2] (application rate 20 ppm) were 100% and 90%, respectively.

Take `O=C(NCCOc1ncc(F)cc1F)c1ccccc1C(F)(F)F` [1-134]: in assay [3], the “nematicidal effect in %” value was 90%.

As for `O=C(NCCOc1ncc(F)cc1F)c1ccccc1I` [1-141], the “nematicidal effect in %” value in assay [3] is 90%.

Turning to `O=C(NC1(COc2ccc(C(F)(F)F)cn2)CC1)c1ccccc1[N+](=O)[O-]` [1-196], the “effect (kill in %)” value in assay [1] worked out at 90%.

Take `O=C(NCCOc1ccc(C(F)(F)F)cn1)c1cccnc1C(F)(F)F` [1-57]: the “effect (kill in %)” value in assay [1] amounted to 80%.

In the case of `O=C(NCCOc1ccc(C(F)(F)F)cn1)c1ccccc1Br` [1-43], the “effect (kill in %)” value in assay [1] is listed as 90%.

Turning to `O=C(NCCOc1ncc(Cl)cc1Cl)c1sccc1Cl` [1-23], the “effect (kill in %)” value in assay [1] stood at 80%.

As for `O=C(NCCOc1ncc(Cl)cc1Cl)c1ccccc1I` [1-18], in assay [1], the “effect (kill in %)” value is 100%. Besides, the “nematicidal effect in %” value in assay [3] amounted to 80%.

In the case of `O=C(NCCOc1ncc(Cl)cc1Cl)c1ccccc1Cl` [1-16], the “effect (kill in %)” value in assay [1] worked out at 100%.

On to `CC(COc1ccc(Cl)cc1Cl)NC(=O)c1ccccc1C(F)(F)F` (stereo not shown) [4-2, reference compound], for which, in assay [2], the inhibition at 20 ppm amounted to 0%.

Regarding `O=C(NCCOc1ccc(Cl)cn1)c1ccccc1I` [1-34], the “effect (kill in %)” value in assay [1] is reported as 90%.

On to `O=C(NCCOc1ncc(C(F)(F)F)cc1Cl)c1ccccc1C(F)F` [1-2], for which, in assay [1], the “effect (kill in %)” value is listed as 100%.

In the case of `O=C(NCCOc1ncc(C(F)(F)F)cc1Cl)c1c(F)cccc1F` [1-52], the “effect (kill in %)” value in assay [1] is reported as 90%.

For the compound `O=C(NCCOc1ncc(C(F)(F)F)cc1Cl)c1cccnc1C(F)(F)F` [1-63], the “effect (kill in %)” value in assay [1] stood at 90%; in assay [2] (application rate 20 ppm) it was 80%. In assay [3], the “nematicidal effect in %” value is reported as 90%.

For the compound `CC(CNC(=O)c1ccccc1C(F)(F)F)Oc1ncc(C(F)(F)F)cc1Cl` (stereo not shown) [1-25], the “effect (kill in %)” value in assay [1] is 100%; in assay [2] (application rate 20 ppm), 90%.

Consider `O=C(NCCOc1ccc(Cl)cn1)c1ccccc1C(F)(F)F` [1-36], for which the entries for the “effect (kill in %)” value in assay [1] and in assay [2] (application rate 100 ppm) were 80% and 90%, respectively.

`O=C(NCCOc1ncc(Cl)cc1Cl)c1ccccc1F` [1-15]: the “effect (kill in %)” value in assay [1] is on record as 80%.

Take `O=C(NC1(COc2ncc(C(F)(F)F)cc2Cl)CC1)c1c(F)cccc1F` [1-167]: in assay [1], the “effect (kill in %)” value was 80%.

Consider `O=C(NC1(COc2ccc(C(F)(F)F)cn2)CC1)c1ccccc1Br` [1-176], for which the “effect (kill in %)” value in assay [1] and in assay [2] (application rate 20 ppm) was 90% each time.

Regarding `O=C(NCCOc1ncc(F)cc1F)c1c(F)cccc1F` [1-133], in assay [3], the “nematicidal effect in %” value is 90%.

On to `O=C(NCCOc1ncc(C(F)(F)F)cc1Cl)c1ccccc1[N+](=O)[O-]` [1-53], for which, in assay [1], the “effect (kill in %)” value is 100%.

`O=C(NCCOc1ccc(C(F)(F)F)cn1)c1ccccc1I` [1-44]: the “effect (kill in %)” value in assay [1] came to 100%.

Consider `Cc1ccccc1C(=O)NCCOc1ncc(C(F)(F)F)cc1Cl` [1-29], for which the “effect (kill in %)” value in assay [1] and in assay [2] (application rate 20 ppm) was 80% throughout.

For `CC(C)(COc1ncc(Cl)cc1Cl)NC(=O)c1ccccc1C(F)(F)F` [1-82], the “effect (kill in %)” value in assay [1] and in assay [2] (application rate 20 ppm) was 90% throughout.

Take `COc1ncccc1C(=O)NCCOc1ncc(C(F)(F)F)cc1Cl` [1-155]: the “effect (kill in %)” value in assay [1] is recorded as 100%; in assay [2] (application rate 20 ppm), 80%.

Regarding `N#Cc1cnc(OCCNC(=O)c2c(F)cccc2F)c(F)c1` [1-189], the “nematicidal effect in %” value in assay [3] came out at 90%.

For `O=C(NCCOc1ccc(C(F)(F)F)cn1)c1sccc1Cl` [1-49], in assay [3], the “nematicidal effect in %” value turned out to be 90%.

As for `O=C(NC1(COc2ccc(C(F)(F)F)cn2)CC1)c1c(F)cccc1F` [1-168], the “effect (kill in %)” value was 90% in assay [1] and 100% in assay [2] (application rate 20 ppm).

In the case of `CC(C)(COc1ccc(C(F)(F)F)cn1)NC(=O)c1ccccc1C(F)(F)F` [1-78], the “effect (kill in %)” value in assay [1] and in assay [2] (application rate 20 ppm) was 80% each time.

On to `O=C(NCCOc1ccc(C(F)(F)F)cn1)c1sccc1I` [1-48], for which, in assay [2] (application rate 20 ppm), the “effect (kill in %)” value is 80%.
